Assay [1] can be described thus: viability loss in CEM21 cells – cell-based, CellTiter-Glo luminescence, cherry-picked, cytotoxicity control for viral fusion inhibitor project, dose response (AID 652042).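 Further: potency for signal decrease meaning cytotoxicity.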 The assay is classed as functional. In general terms: ATP-based viability assays read luminescence as a measure of living cells.
Assay [2] can be described thus: P. falciparum Dd2 growth inhibitors, dose response, SYBR Green, cherry-picked samples (AID 1159567). The assay is classed as functional, cell-based.
Assay [3] deals with Paired box protein Pax-8 (Homo sapiens, UniProt Q06710). The assay can be described thus: PAX8 transcriptional activity inhibition in RMG-I – RMG-I cells, luciferase, cherry-pick, dose response (AID 687027).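 Further: luciferase reporter driven by Pax8 target thyroperoxidase promoter measured by SteadyGlo luminescence.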 The assay is classed as functional, cell-based.
Paired box protein Pax-8, sequence (Q06710 whole entry): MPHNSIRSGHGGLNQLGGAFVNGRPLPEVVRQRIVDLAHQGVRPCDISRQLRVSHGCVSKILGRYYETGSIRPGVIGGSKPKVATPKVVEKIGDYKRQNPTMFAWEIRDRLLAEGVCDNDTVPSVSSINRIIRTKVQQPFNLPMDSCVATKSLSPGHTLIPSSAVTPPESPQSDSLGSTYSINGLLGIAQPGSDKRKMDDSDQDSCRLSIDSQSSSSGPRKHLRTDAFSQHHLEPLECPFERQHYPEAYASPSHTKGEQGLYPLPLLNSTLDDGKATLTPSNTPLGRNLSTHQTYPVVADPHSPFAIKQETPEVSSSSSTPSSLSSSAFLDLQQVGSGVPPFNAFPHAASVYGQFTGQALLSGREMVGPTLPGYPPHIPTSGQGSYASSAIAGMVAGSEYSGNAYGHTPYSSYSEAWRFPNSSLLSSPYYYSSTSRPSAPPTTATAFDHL
The nature of assay [4]: IGROV1 cell killing – plate reader, dry powder samples, PAX8 inhibitor project, dose response (AID 743043). The assay is classed as functional, cell-based. Particulars: IGROV-1.
Assay [5] in a line: OVCAR-3 cell viability loss – plate reader, dry powder samples, PAX8 inhibitor project, dose response (AID 743044). The assay is classed as functional, cell-based.
Assay [6] is described as follows: toxicity to human hepatoma HepG2 cells – cell-based, cherry-picked samples, cytotoxicity control, dose response (AID 1159577). The assay is classed as functional.
Assay [7] in a line: blockers of HIV-1 envelope-mediated cell-cell fusion – cherry-pick, dose response (AID 652057). The assay is classed as functional, cell-based.
Assay [8] can be described thus: off-target signal loss in HeLa-CEM21 co-culture – HeLa F-luc CTL cells, cherry-picked, counter-screen for HIV-1 Env fusion inhibitor project, dose response (AID 652040).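 Further: potency for signal decrease marking cytotoxic or nonspecific inhibition.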 The assay is classed as functional, cell-based. For orientation: A counterscreen serves to expose hits that act by an unwanted route or on another target.
The nature of assay [9]: HIV-1 AD8 envelope cell-cell fusion blockers – cherry-pick, dose response (AID 652062).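 Further: luciferase signal from cell-cell fusion driven by HIV-1 clade B AD8 Env; potency is for inhibitors of fusion seen as a drop in luminescence.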 The assay is classed as functional, cell-based.
The nature of assay [10]: blockers of HIV-1 ZM109 envelope-driven cell-cell fusion – HeLa effector, CEM target cells, luciferase, cherry-pick, dose response (AID 652058).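 Further: luciferase signal from HIV-1 Env mediated cell-cell fusion of effector and target cells.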 It is filed as functional, cell-based.
Assay [11] addresses T1, Zinc finger protein mex-5 (Caenorhabditis elegans, UniProt Q9XUB2).
T1 sequence (Q9XUB2 whole entry): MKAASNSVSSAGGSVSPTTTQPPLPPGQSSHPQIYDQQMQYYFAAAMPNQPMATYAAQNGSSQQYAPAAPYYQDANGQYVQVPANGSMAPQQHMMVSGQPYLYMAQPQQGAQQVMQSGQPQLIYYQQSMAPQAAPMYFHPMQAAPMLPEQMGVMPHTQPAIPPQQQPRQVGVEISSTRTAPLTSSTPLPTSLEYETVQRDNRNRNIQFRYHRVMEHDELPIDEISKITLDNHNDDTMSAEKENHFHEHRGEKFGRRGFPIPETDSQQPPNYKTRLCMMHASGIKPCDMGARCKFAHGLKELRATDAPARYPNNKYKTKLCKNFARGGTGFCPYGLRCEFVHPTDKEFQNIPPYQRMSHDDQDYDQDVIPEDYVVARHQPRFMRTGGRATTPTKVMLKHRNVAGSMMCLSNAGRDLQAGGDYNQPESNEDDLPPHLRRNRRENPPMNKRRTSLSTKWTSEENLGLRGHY
The assay is described as follows: potency of MEX-5 RNA-binding blockers – biochemical, C. elegans, fluorescence polarization, dose response (AID 1960). In general terms: Polarisation of emitted light reports the rotation of a fluorescent probe.

The target of assay [12] is T2, Polyadenylate-binding protein 1 (Homo sapiens, UniProt P11940). The assay is described as follows: MLLE binding blockers, Cy5 peptide tracer – biochemical, fluorescence polarization, Cy5-PAM2 peptide, secondary, miRNA deadenylation inhibitor project, dose response (AID 602260). It is filed as functional. The settings on record: read-out: IC50_Mean.
T2 sequence (P11940 whole entry): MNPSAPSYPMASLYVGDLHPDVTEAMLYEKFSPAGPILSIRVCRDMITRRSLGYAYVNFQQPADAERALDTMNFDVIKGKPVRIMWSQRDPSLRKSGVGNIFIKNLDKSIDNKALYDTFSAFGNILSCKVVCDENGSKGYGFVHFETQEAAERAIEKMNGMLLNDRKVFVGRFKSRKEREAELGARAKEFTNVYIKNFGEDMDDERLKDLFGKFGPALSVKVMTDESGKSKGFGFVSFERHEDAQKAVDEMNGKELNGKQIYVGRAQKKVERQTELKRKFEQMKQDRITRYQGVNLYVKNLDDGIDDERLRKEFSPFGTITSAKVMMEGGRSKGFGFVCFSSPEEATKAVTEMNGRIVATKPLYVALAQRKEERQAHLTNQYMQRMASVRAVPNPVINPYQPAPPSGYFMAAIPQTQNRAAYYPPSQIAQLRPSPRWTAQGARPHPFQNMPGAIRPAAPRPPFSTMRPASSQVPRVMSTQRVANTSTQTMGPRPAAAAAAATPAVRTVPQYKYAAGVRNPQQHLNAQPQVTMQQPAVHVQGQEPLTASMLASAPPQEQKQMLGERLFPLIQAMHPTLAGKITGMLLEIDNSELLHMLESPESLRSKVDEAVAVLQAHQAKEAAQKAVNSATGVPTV
Assay [13] is described as follows: Counterscreen for activators of the function of SWI/SNF related, matrix associated, actin dependent regulator of chromatin, subfamily a, member 2 (SMARCA2, BRM): Luminescence-based cell-based high throughput dose response assay to identify non-selective compounds using the VP16 reporter assay. The assay is classed as functional.
Assay [14] addresses T2, Polyadenylate-binding protein 1. The assay can be described thus: MLLE domain peptide-binding blockers, IC50 – biochemical, fluorescence polarization, FITC-PAM2 peptide, dose response (AID 602259). The settings on record: read-out: IC50_Mean. It is filed as functional.
Assay [15] addresses SWI/SNF-related matrix-associated actin-dependent regulator of chromatin subfamily A member 2 (Homo sapiens, UniProt P51531). The assay can be described thus: Luminescence-based cell-based high throughput dose response assay to identify activators of the function of SWI/SNF related, matrix associated, actin dependent regulator of chromatin, subfamily a, member 2 (SMARCA2, BRM). The assay is classed as functional.

Assay [16] deals with T3, RNA-binding protein pos-1 (Caenorhabditis elegans, UniProt G5EF15).
T3 sequence (G5EF15 whole entry): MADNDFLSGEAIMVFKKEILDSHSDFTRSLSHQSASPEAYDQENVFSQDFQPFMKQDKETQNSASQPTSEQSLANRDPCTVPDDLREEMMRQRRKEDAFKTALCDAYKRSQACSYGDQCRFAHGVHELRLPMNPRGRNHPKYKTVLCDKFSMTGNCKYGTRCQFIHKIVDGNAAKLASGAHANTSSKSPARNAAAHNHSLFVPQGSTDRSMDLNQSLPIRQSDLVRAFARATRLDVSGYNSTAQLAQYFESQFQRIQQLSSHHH
The assay is described as follows: disruptors of C. elegans POS-1 RNA interaction – biochemical, fluorescence polarization, dose response (AID 1964).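 Further: purified POS-1 fused to maltose binding protein made in E. coli; potency of compounds blocking POS-1 binding to fluorescent RNA.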

Activity calls are given as the source filed them.

SWI/SNF-related matrix-associated actin-dependent regulator of chromatin subfamily A member 2, sequence (P51531 whole entry): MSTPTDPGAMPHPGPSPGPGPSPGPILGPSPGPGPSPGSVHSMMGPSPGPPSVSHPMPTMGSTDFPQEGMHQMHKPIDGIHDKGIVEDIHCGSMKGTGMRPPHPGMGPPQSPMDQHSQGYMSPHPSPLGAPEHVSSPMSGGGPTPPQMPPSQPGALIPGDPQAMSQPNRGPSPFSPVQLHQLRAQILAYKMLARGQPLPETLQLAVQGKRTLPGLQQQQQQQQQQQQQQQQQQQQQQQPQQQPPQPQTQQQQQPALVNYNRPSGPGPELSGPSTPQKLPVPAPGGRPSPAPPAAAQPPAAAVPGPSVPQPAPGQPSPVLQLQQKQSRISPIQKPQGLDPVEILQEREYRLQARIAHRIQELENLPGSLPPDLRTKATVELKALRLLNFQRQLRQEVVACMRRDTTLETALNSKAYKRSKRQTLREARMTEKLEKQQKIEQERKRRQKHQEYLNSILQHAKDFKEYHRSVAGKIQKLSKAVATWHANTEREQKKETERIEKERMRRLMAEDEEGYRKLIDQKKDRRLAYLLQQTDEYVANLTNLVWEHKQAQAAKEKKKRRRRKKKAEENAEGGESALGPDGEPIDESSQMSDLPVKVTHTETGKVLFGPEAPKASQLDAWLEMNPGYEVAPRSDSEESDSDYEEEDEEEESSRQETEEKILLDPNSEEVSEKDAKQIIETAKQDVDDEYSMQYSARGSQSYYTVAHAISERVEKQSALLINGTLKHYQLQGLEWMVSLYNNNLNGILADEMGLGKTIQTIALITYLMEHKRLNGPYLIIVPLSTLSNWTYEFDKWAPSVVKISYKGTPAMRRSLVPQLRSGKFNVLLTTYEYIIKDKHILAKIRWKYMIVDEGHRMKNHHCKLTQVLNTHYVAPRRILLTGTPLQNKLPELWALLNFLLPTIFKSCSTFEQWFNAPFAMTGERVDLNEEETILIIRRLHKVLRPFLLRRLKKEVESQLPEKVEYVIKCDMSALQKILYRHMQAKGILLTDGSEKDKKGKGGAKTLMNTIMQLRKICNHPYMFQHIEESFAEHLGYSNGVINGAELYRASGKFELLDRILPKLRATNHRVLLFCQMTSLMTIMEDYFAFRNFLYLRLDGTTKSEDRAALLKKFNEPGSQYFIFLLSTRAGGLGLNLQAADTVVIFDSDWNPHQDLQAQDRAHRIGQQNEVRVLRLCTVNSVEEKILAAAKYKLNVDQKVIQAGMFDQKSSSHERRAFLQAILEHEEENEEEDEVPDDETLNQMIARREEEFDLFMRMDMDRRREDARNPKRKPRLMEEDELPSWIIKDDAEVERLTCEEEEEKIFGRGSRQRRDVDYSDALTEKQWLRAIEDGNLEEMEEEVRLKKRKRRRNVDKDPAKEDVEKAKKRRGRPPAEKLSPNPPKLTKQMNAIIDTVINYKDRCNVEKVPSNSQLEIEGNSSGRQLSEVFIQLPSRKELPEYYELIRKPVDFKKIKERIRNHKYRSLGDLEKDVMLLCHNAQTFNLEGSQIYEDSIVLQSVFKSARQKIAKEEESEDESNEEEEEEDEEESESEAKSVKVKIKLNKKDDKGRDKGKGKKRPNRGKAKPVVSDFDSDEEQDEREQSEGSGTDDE

Take `C[C@@H]1CN([C@@H](C)CO)C(=O)Cc2cc(NC(=O)NC3CCCCC3)ccc2O[C@@H]1CN(C)S(=O)(=O)c1ccc(Cl)cc1`: the AC50 (usually the concentration giving half of the maximal activity seen) in [1] is 61.1 µM (active).

In the case of `CCCC#Cc1ccc([C@@H]2[C@H](CO)N3CCCCN(S(=O)(=O)Cc4ccccc4)C[C@@H]23)cc1`, the AC50 was 2.54 µM (active) in assay [2]; 29.2 µM (active) in assay [3]; 42.6 µM (active) in assay [4]; 61.3 µM (active) in assay [5]; 12.4 µM (active) in assay [6].

Take `COc1cc(CNC(C)c2ccccc2)cc(Cl)c1OCC(=O)Nc1ccccc1` (configuration not stated): the AC50 was 2.13 µM (active) in assay [7]; 4.69 µM (active) in [8]; 3.78 µM (active) in assay [9]; 2.76 µM (active) in assay [10]; 39 µM (active) in assay [1].

With `CN(C)CCCN1C(=O)c2cccc3c(Br)ccc(c23)C1=O`, the EC50 (commonly the midpoint of the concentration-response curve) in [11] is 16.7 µM (active); in assay [13] it was > 91.2 µM (inactive); in assay [15], > 10.1 µM (inactive); in assay [16], 22.1 µM (active). The IC50 in [12] was > 66 µM (inactive); in [14], 29.3 µM (inactive).

The values above are taken from ChEMBL document CHEMBL1201862, “PubChem BioAssay data set” (2004).
